Consider three compounds from US20200038423A1, “USE OF 6-O-(C8-C20 ALKYL ESTER) OF 1-O-(C1-C6 ALKYL)-ß-D-GLUCOSIDE AS AN AGENT FOR PROTECTING THE SKIN” (PIERRE FABRE DERMO-COSMETIQUE, priority 2016, published 2020).

Holding throughout (type): cell-based
Experiment [1] has as its system primary normal human keratinocytes. The experiment can be described thus: Oris Cell Migration Assay, keratinocyte migration. As to conditions: for % Stim (% stimulation of keratinocyte migration): 24 h migration. As to the method:
Oris™ Cell Migration Assays were used to estimate cell migration.
Primary normal human keratinocytes isolated from tissues extracted during cosmetic surgery were seeded on 96-well plates and cultured in KSFM supplemented with 25 μg/ml bovine pituitary extract (BPE, Invitrogen) and 0.2 ng/ml EGF (Invitrogen). After 24 h of incubation, the culture medium is replaced with KSM without supplement. After 24 h of incubation, the Oris™ stoppers as well as the test compounds or positive controls are removed. The latter are 5 ng/ml TGF-β, 30 ng/ml EGF, or KSM supplemented with BPE and EGF. Incubation continues for the next 24 h to allow migration. At the end of incubation, Calcein AM dye, which penetrates the cells, is added to the wells and is converted to fluorescence which is then quantified in a detection zone using a monochromatic microplate (Clariostar, BMG Labteck).
The compound tested is 1-O-n-butyl-β-D-glucoside 6-O-lauroyl, it is solubilized in DMSO at a concentration of 100 mM. The compound is tested at 2, 10 and 20 μM. The effect of DMSO at the tested concentrations has no effect on keratinocyte migration. The experiments are repeated on 2 donors with 8 wells for each condition.
The quantification of the fluorescence emitted in the detection zone is proportional to keratinocyte migration. Statistical analyses (Mann-Whitney test) are used to analyze the effect of the compound. After fluorescence quantification, the cells were rapidly fixed in 4% paraformaldehyde before eosin-hematoxylin staining and observed under a microscope.

In a further experiment the test system is CASP14. The experiment can be described thus: RT-qPCR, modulation of genes involved in keratinocyte differentiation and hydration: CASP14. As to conditions: CaCl2 1.5 mM; normal human keratinocytes, 48 h; protein differentiation marker. As to the method:
(§1) Normal human keratinocytes were incubated for 48 h with 1-O-n-butyl-β-D-glucoside 6-O-lauroyl. Its effects were evaluated using the RT-qPCR technique with the analysis of 6 target genes, chosen for their importance in keratinocyte differentiation and hydration.
For orientation: Real-time PCR tracks product formation cycle by cycle.

In the next experiment the test system is FABP5. The experiment can be described thus: RT-qPCR, modulation of genes involved in keratinocyte differentiation and hydration: FABP5. To be noted: CaCl2 1.5 mM; normal human keratinocytes, 48 h; lipid differentiation marker. As to the method:
as §1

The next experiment concerns TGM1. The experiment can be described thus: RT-qPCR, modulation of genes involved in keratinocyte differentiation and hydration: TGM1. To be noted: CaCl2 1.5 mM; normal human keratinocytes, 48 h; protein differentiation marker. As to the method: as §1
Another experiment deals with SULT2B1. The experiment can be described thus: RT-qPCR, modulation of genes involved in keratinocyte differentiation and hydration: SULT2B1. To be noted: CaCl2 1.5 mM; normal human keratinocytes, 48 h; lipid differentiation marker. As to the method:
as §1

The next experiment has as its system KLK7. The experiment can be described thus: RT-qPCR, modulation of genes involved in keratinocyte differentiation and hydration: KLK7. As to conditions: CaCl2 1.5 mM; normal human keratinocytes, 48 h; protein differentiation marker. As to the method: as §1
For the next experiment, the system named is DEGS2. The experiment can be described thus: RT-qPCR, modulation of genes involved in keratinocyte differentiation and hydration: DEGS2. To be noted: CaCl2 1.5 mM; normal human keratinocytes, 48 h; lipid differentiation marker. As to the method: as §1
Experiment [2] has as its system Normal human keratinocytes. The experiment can be described thus: Keratinocyte differentiation judged from RT-qPCR of 6 target genes. As to conditions: 20 μM, incubation for 48 h. As to the method:
as §1

“EGF: positive control of migration, 30 ng/ml EGF [reference compound]”: the “% Stim (% stimulation of keratinocyte migration)” value is listed as 35% in experiment [1] (donor 1, 30 ng/ml) and 87% in experiment [1] (donor 2, 30 ng/ml).

On to `[Ca+2].[Cl-].[Cl-]` [CaCl2], for which the “CASP14 expression, Mean (% Control)” value in the experiment on CASP14 amounted to 127 % Control. For the same compound, the “FABP5 expression, Mean (% Control)” value in the experiment on FABP5 turned out to be 501 % Control. For the same compound, the “TGM1 expression, Mean (% Control)” value in the experiment with TGM1 came out at 910 % Control. The “SULT2B1 expression, Mean (% Control)” value in the experiment with SULT2B1 turned out to be 1169 % Control. In addition, in the experiment on KLK7, the “KLK7 expression, Mean (% Control)” value stood at 994 % Control. Further, in the experiment with DEGS2, the “DEG S2 expression, Mean (% Control)” value was found to be 217 % Control.

For `CCCCCCCCCCCC(=O)OC[C@H]1O[C@@H](OCCCC)[C@H](O)[C@@H](O)[C@@H]1O` [β-LBG, 1-O-n-butyl-β-D-glucoside 6-O-lauroyl], the keratinocyte differentiation result in experiment [2] was “induces reproducible keratinocyte differentiation”. Also, the keratinocyte migration result in experiment [1] (both donors tested, at either 10 μM or 20 μM) is given as “stimulates keratinocyte migration”. The “migration of normal human keratinocytes” value in experiment [1] (concentrations of 10 to 20 μM) was “significantly stimulates”. In addition, the “% Stim (% stimulation of keratinocyte migration)” value in experiment [1] (donor 1, 2 μM) is given as −30%; in experiment [1] (donor 1, 10 μM), 41%; in experiment [1] (donor 1, 20 μM), 104%; in experiment [1] (donor 2, 2 μM) it was 46%; in experiment [1] (donor 2, 10 μM) it was 63%; in experiment [1] (donor 2, 20 μM) it was 21%.
